From BigSolDB 2.1

C[C@@H]1O[C@@H]1P(=O)([O-])[O-].[Na+].[Na+]
solubility (mole fraction)
Settings | 283.15 K | 288.15 K | 293.15 K | 298.15 K | 303.15 K | 308.15 K | 313.15 K | 318.15 K | 323.15 K
in DMF | 0.000606 | 0.000532 | 0.000481 | 0.000443 | 0.000396 | 0.000358 | 0.000339 | 0.000312 | 0.000291
in acetone | 0.000186 | 0.00016 | 0.000138 | 0.000115 | 9.72e-05 | 8.3e-05 | 7.09e-05 | 6.07e-05 | 5.47e-05
in cyclohexane | 0.000403 | 0.000353 | 0.0003 | 0.000252 | 0.000226 | 0.000196 | 0.000175 | 0.000151 | 0.000128
in ethanol | 0.00109 | 0.000934 | 0.000769 | 0.000643 | 0.000548 | 0.000463 | 0.000383 | 0.000316 | 0.000266
in methanol | 0.0177 | 0.0165 | 0.0152 | 0.0138 | 0.0129 | 0.0121 | 0.0111 | 0.0105 | 0.00984
in n-propanol | 0.000108 | 8.01e-05 | 6.19e-05 | 4.52e-05 | 3.09e-05 | 1.95e-05 | 1.34e-05 | 1.04e-05 | 7.1e-06
